According to patent publication US8067445B2, “N,N-disubstituted aminoalkylbiphenyl antagonists of prostaglandin D2 receptors” (Panmira Pharmaceuticals, LLC, priority 2008, dated 2011):
Read-outs that look alike come from different tables or passages of the source.

Target: T1, human DP1 receptor (Homo sapiens, UniProt Q13258)
T1 construct: tissue Biological Specialty Corporation; host or cells: human platelet membranes
T1 sequence (Q13258 1-359): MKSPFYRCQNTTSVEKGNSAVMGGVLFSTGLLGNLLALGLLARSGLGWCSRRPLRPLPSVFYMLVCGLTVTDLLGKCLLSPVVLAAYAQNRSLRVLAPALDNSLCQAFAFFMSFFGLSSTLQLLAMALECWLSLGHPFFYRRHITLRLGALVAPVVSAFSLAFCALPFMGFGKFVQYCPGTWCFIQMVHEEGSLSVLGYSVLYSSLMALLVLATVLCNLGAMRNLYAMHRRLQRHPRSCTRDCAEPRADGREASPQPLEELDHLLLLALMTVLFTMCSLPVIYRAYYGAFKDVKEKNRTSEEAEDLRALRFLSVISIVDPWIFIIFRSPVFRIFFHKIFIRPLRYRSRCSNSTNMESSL
Experiment: DP1 radioligand binding assay ([3H]BWA868C, platelet membranes)
Procedure: The ability of a compound to bind to the human DPI receptor was evaluated via a radioligand membrane binding assay using the DP1 selective synthetic ligand [^311]BWA868C. Packed human platelets (Biological Specialty Corporation), were resuspended in 6 volumes of Hepes/HBSS buffer (10 mM Hepes, 1 mM DTT in Hanks Balanced Salt Solution (HBSS)), lysed and centrifuged at 75,000×g to pellet the membranes. Membranes were resuspended in Hepes/HBSS buffer to approximately 12 mg protein/ml. Membranes (20 μg protein/well) are incubated in 96-well plates with 2 nM [^3H]BWA868C and test compound in Assay Buffer (50 mM Hepes, 10 mM MnCl2, 1 mM EDTA, plus or minus 0.2% human serum albumin, pH 7.4) for 60 minutes at room temperature. The reactions are terminated by rapid filtration through Whatman GF/C glass fibre filter plates. The filter plates were pre-soaked in 0.33% polyethylenimine for 30 minutes at room temperature then washed in Wash Buffer (50 mM Hepes, 0.5 M NaCl pH 7.4) prior to harvesting. After harvesting, the filter plates are washed 3 times with 1 ml cold Wash Buffer then dried. Scintillant is then added to the plates and the radioactivity retained on the filters is determined on a Packard TopCount (Perkin Elmer). Specific binding is determined as total radioactive binding minus non-specific binding in the presence of 10 μM BW A868C. IC50s were determined using GraphPad prism analysis of drug titration curves.

[1] = [3H]BWA868C binding, human platelet membranes, read-out: hDP1

Row | IC50 [1] [µM] | IC50 [µM] | Structure (SMILES)
1 | 1 to 30 | – | COc1ccc(CC(=O)O)cc1-c1ccc(C(F)(F)F)cc1CN(CC(F)(F)F)C(C)=O [Compound 1-4, (2′-{[Acetyl-(2,2,2-trifluoro-ethyl)-amino]-methyl}-6-methoxy-4′-trifluoromethyl-biphenyl-3-yl)-acetic acid]
2 | 1 to 30 | – | CCN(Cc1cc(C(F)(F)F)ccc1-c1cc(CC(=O)O)ccc1OC)C(=O)OC [Compound 1-23, {2′-[(Ethyl-methoxycarbonyl-amino)-methyl]-6-methoxy-4′-trifluoromethyl-biphenyl-3-yl}-acetic acid]
3 | 1 to 30 | – | CCN(Cc1cc(C(F)(F)F)ccc1-c1cc(CC(=O)O)ccc1OC)C(=O)OCc1cc(F)cc(F)c1 [Compound 1-40, (2′-{[(3,5-Difluoro-benzyloxycarbonyl)-ethyl-amino]-methyl}-6-methoxy-4′-trifluoromethyl-biphenyl-3-yl)-acetic acid]
4 | 1 to 30 | – | CCN(Cc1cc(F)ccc1-c1cc(CC(=O)O)ccc1OC)C(=O)NCc1ccc(Cl)cc1 [Compound 1-185, {2′-[3-(4-Chloro-benzyl)-1-ethyl-ureidomethyl]-4′-fluoro-6-methoxy-biphenyl-3-yl}-acetic acid]
5 | 1 to 30 | – | CCOc1ccc(CC(=O)O)cc1-c1ccc(C(F)(F)F)cc1CN(CC)C(=O)OCc1ccccc1 [Compound 1-129, {2′-[(Benzyloxycarbonyl-ethyl-amino)-methyl]-6-ethoxy-4′-trifluoromethyl-biphenyl-3-yl}-acetic acid]
6 | 1 to 30 | – | CCN(Cc1cc(C(F)(F)F)ccc1-c1cc(CC(=O)O)ccc1OC)C(=O)OCc1cccc(Cl)c1 [Compound 1-43, (2′-{[(3-Chloro-benzyloxycarbonyl)-ethyl-amino]-methyl}-6-methoxy-4′-trifluoromethyl-biphenyl-3-yl)-acetic acid]
7 | 1 to 30 | – | CCN(Cc1cc(NS(C)(=O)=O)ccc1-c1cc(CC(=O)O)ccc1OC)C(=O)OCc1ccccc1 [Compound 1-155, {2′-[(Benzyloxycarbonyl-ethyl-amino)-methyl]-4′-methanesulfonylamino-6-methoxy-biphenyl-3-yl}-acetic acid]
8 | 1 to 30 | – | CCN(Cc1cc(C(F)(F)F)ccc1-c1cc(CC(=O)O)ccc1OC)C(=O)C(F)(F)F [Compound 1-32, (2′-{[Ethyl-(2,2,2-trifluoro-acetyl)-amino]-methyl}-6-methoxy-4′-trifluoromethyl-biphenyl-3-yl)-acetic acid]
9 | 1 to 30 | – | CN(Cc1cc(C(F)(F)F)ccc1-c1cc(CC(=O)O)ccc1F)C(=O)OCc1ccccc1 [Compound 1-29, {2′-[(Benzyloxycarbonyl-methyl-amino)-methyl]-6-fluoro-4′-trifluoromethyl-biphenyl-3-yl}-acetic acid]
10 | 1 to 30 | – | CCNC(=O)N(CC)Cc1cc(C(F)(F)F)ccc1-c1cc(CC(=O)O)ccc1OC [Compound 1-181, [2′-(1,3-Diethyl-ureidomethyl)-6-methoxy-4′-trifluoromethyl-biphenyl-3-yl]-acetic acid]
11 | 1 to 30 | – | CCN(Cc1cc(F)ccc1-c1cc(CC(=O)O)ccc1OC)C(=O)C1CC1 [Compound 1-186, {2′-[(Cyclopropanecarbonyl-ethyl-amino)-methyl]-4′-fluoro-6-methoxy-biphenyl-3-yl}-acetic acid]
12 | 1 to 30 | – | CCN(Cc1cc(C(F)(F)F)ccc1-c1cc(CC(=O)O)ccc1OC)C(=O)NCc1ccc(F)cc1 [Compound 1-176, {2′-[1-Ethyl-3-(4-fluoro-benzyl)-ureidomethyl]-6-methoxy-4′-trifluoromethyl-biphenyl-3-yl}-acetic acid]
13 | 1 to 30 | – | CCN(Cc1cc(C(F)(F)F)ccc1-c1cc(CC(=O)O)ccc1OC)C(C)=O [Compound 1-2, {2′-[(Acetyl-ethyl-amino)-methyl]-6-methoxy-4′-trifluoromethyl-biphenyl-3-yl}-acetic acid]
14 | 1 to 30 | – | CCN(Cc1cc(C(F)(F)F)ccc1-c1cc(CC(=O)O)ccc1OC)C(=O)NCc1ccccc1 [Compound 1-96, [2′-(3-Benzyl-1-ethyl-ureidomethyl)-6-methoxy-4′-trifluoromethyl-biphenyl-3-yl]-acetic acid]
15 | 1 to 30 | – | COc1ccc(CC(=O)O)cc1-c1ccc(C(F)(F)F)cc1CN(C)C(C)=O [Compound 1-1, {2′-[(Acetyl-methyl-amino)-methyl]-6-methoxy-4′-trifluoromethyl-biphenyl-3-yl}-acetic acid]
16 | 1 to 30 | – | CCN(Cc1cc(C(F)(F)F)ccc1-c1cc(CC(=O)O)ccc1OC)C(=O)COCc1ccccc1 [Compound 1-92, (2′-{[(2-Benzyloxy-acetyl)-ethyl-amino]-methyl}-6-methoxy-4′-trifluoromethyl-biphenyl-3-yl)-acetic acid]
17 | 1 to 30 | – | CCN(Cc1cc(C(F)(F)F)ccc1-c1cc(CC(=O)O)ccc1OC)C(=O)NCc1ccc(Cl)c(Cl)c1 [Compound 1-152, {2′-[3-(3,4-Dichloro-benzyl)-1-ethyl-ureidomethyl]-6-methoxy-4′-trifluoromethyl-biphenyl-3-yl}-acetic acid]
18 | 1 to 30 | – | CCN(Cc1cc(C(F)(F)F)ccc1-c1cc(CC(=O)O)ccc1OC)C(=O)OCc1ccc(F)cc1 [Compound 1-41, (2′-{[Ethyl-(4-fluoro-benzyloxycarbonyl)-amino]-methyl}-6-methoxy-4′-trifluoromethyl-biphenyl-3-yl)-acetic acid]
19 | 1 to 30 | – | CCN(Cc1cc(C(F)(F)F)ccc1-c1cc(CC(=O)O)ccc1OC)C(=O)NCc1cc(F)cc(F)c1 [Compound 1-178, {2′-[3-(3,5-Difluoro-benzyl)-1-ethyl-ureidomethyl]-6-methoxy-4′-trifluoromethyl-biphenyl-3-yl}-acetic acid]
20 | 1 to 30 | – | CCN(Cc1cc(C(F)(F)F)ccc1-c1cc(CC(=O)O)ccc1OC)C(=O)C(C)(C)Oc1ccc(Cl)cc1 [Compound 1-118, [2′-({[2-(4-Chloro-phenoxy)-2-methyl-propionyl]-ethyl-amino}-methyl)-6-methoxy-4′-trifluoromethyl-biphenyl-3-yl]-acetic acid]
21 | – | 1 to 30 | COc1ccc(CC(=O)O)cc1-c1ccc(C(F)(F)F)cc1CN(C(=O)OCc1ccccc1)C1CC1 [Compound 1-36, {2′-[(Benzyloxycarbonyl-cyclopropyl-amino)-methyl]-6-methoxy-4′-trifluoromethyl-biphenyl-3-yl}-acetic acid]
22 | 1 to 30 | – | CCN(Cc1cc(F)ccc1-c1cc(CC(=O)O)ccc1OC)C(=O)NCc1ccccc1 [Compound 1-187, [2′-(3-Benzyl-1-ethyl-ureidomethyl)-4′-fluoro-6-methoxy-biphenyl-3-yl]-acetic acid]
23 | 1 to 30 | – | COc1ccc(CC(=O)O)cc1-c1ccc(C(F)(F)F)cc1CN(C(C)=O)C1CCC1 [Compound 1-30, {2′-[(Acetyl-cyclobutyl-amino)-methyl]-6-methoxy-4′-trifluoromethyl-biphenyl-3-yl}-acetic acid]
24 | 1 to 30 | – | CCN(Cc1cc(C(F)(F)F)ccc1-c1cc(CC(=O)O)ccc1OC)C(=O)COc1ccccc1 [Compound 1-48, (2′-{[Ethyl-(2-phenoxy-acetyl)-amino]-methyl}-6-methoxy-4′-trifluoromethyl-biphenyl-3-yl)-acetic acid]
25 | 1 to 30 | – | CCN(Cc1cc(C(F)(F)F)ccc1-c1cc(CC(=O)O)ccc1OC)C(=O)COc1ccc(Cl)cc1 [Compound 1-93, [2′-({[2-(4-Chloro-phenoxy)-acetyl]-ethyl-amino}-methyl)-6-methoxy-4′-trifluoromethyl-biphenyl-3-yl]-acetic acid]
26 | 1 to 30 | – | CCN(Cc1cc(C(F)(F)F)ccc1-c1cc(CC(=O)O)ccc1Cl)C(=O)OCc1ccccc1 [Compound 1-110, {2′-[(Benzyloxycarbonyl-ethyl-amino)-methyl]-6-chloro-4′-trifluoromethyl-biphenyl-3-yl}-acetic acid]
27 | 1 to 30 | – | CCN(Cc1cc(C(F)(F)F)ccc1-c1cc(CC(=O)O)ccc1F)C(C)=O [Compound 1-10, {2′-[(Acetyl-ethyl-amino)-methyl]-6-fluoro-4′-trifluoromethyl-biphenyl-3-yl}-acetic acid]
28 | 1 to 30 | – | CCN(Cc1cc(C(F)(F)F)ccc1-c1cc(CC(=O)O)ccc1OC)C(=O)C(C)Oc1ccccc1 (stereo not drawn) [Compound 1-45, (2′-{[Ethyl-(2-phenoxy-propionyl)-amino]-methyl}-6-methoxy-4′-trifluoromethyl-biphenyl-3-yl)-acetic acid]
29 | 1 to 30 | – | CCN(Cc1cc(C(F)(F)F)ccc1-c1cc(CC(=O)O)ccc1OC)C(=O)OC(C)c1ccc(Cl)cc1 (stereo not drawn) [Compound 1-44, [2′-({[1-(4-Chloro-phenyl)-ethoxycarbonyl]-ethyl-amino}-methyl)-6-methoxy-4′-trifluoromethyl-biphenyl-3-yl]-acetic acid]
30 | 1 to 30 | – | CCN(Cc1cc(F)ccc1-c1cc(CC(=O)O)ccc1OC)C(C)=O [Compound 1-184, {2′-[(Acetyl-ethyl-amino)-methyl]-4′-fluoro-6-methoxy-biphenyl-3-yl}-acetic acid]
